The values that follow come from patent US8835462B2, “Macrocyclic picolinamides as fungicides” (Dow AgroSciences LLC, priority 2012, dated 2014).

Holding throughout (format): in vivo
One assay concerns Cercospora beticola. Nature of the assay: Leaf spot of sugar beets (CERCBE) fungicidal activity. The note with it: 24 h, 1 Day Protectant, sugar beet, read-out: Disease Control CERCBE 1DP. Here is the method:
Technical grades of materials were dissolved in acetone, which were then mixed with nine volumes of water containing 110 ppm Triton X-100. The fungicide solutions were applied onto wheat seedlings using an automated booth sprayer to run-off. All sprayed plants were allowed to air dry prior to further handling. Wheat plants (variety Yuma) were grown from seed in a greenhouse in 50% mineral soil/50% soil-less Metro mix until the first leaf was fully emerged, with 7-10 seedlings per pot. These plants were inoculated with an aqueous spore suspension of Septoria tritici either prior to or after fungicide treatments. After inoculation the plants were kept in 100% relative humidity (one day in a dark dew chamber followed by two to three days in a lighted dew chamber at 20° C.) to permit spores to germinate and infect the leaf. The plants were then transferred to a greenhouse set at 20° C. for disease to develop. When disease symptoms were fully expressed on the 1st leaves of untreated plants, infection levels were assessed on a scale of 0 to 100 percent disease severity. Percent disease control was calculated using the ratio of disease severity on treated plants relative to untreated plants. Evaluation of Fungicidal Activity: Leaf Spot of Sugar Beets (Cercospora Beticola; Bayer Code CERCBE) Sugar beet plants (variety HH88) were grown in soil-less Metro mix and trimmed regularly to maintain an uniform plant size prior to test. Plants were inoculated with a spore suspension 24 hr after fungicide treatments. Inoculated plants were kept in a dew chamber at 22° C. for 48 hr then incubated in a greenhouse set at 24° C. under a clear plastic hood with bottom ventilation until disease symptoms were fully expressed. Fungicide formulation, application and disease assessment on the sprayed leaves followed the procedures as described in the Example A.

The next assay relates to Erysiphe cichoracearum. Nature of the assay: Powdery mildew of cucumber (ERYSCI) fungicidal activity. To be noted: Golovinomyces cichoracearum, 24 h, 1 Day Protectant, read-out: Disease Control ERYSCI 1DP. How it is done: Technical grades of materials were dissolved in acetone, which were then mixed with nine volumes of water containing 110 ppm Triton X-100. The fungicide solutions were applied onto wheat seedlings using an automated booth sprayer to run-off. All sprayed plants were allowed to air dry prior to further handling. Wheat plants (variety Yuma) were grown from seed in a greenhouse in 50% mineral soil/50% soil-less Metro mix until the first leaf was fully emerged, with 7-10 seedlings per pot. These plants were inoculated with an aqueous spore suspension of Septoria tritici either prior to or after fungicide treatments. After inoculation the plants were kept in 100% relative humidity (one day in a dark dew chamber followed by two to three days in a lighted dew chamber at 20° C.) to permit spores to germinate and infect the leaf. The plants were then transferred to a greenhouse set at 20° C. for disease to develop. When disease symptoms were fully expressed on the 1st leaves of untreated plants, infection levels were assessed on a scale of 0 to 100 percent disease severity. Percent disease control was calculated using the ratio of disease severity on treated plants relative to untreated plants. Evaluation of Fungicidal Activity: Powdery Mildew of Cucumber (Erysiphe cichoracearum; Bayer Code […]) Cucumber seedlings (variety Bush Pickle) were grown in soil-less Metro mix, with one plant per pot, and used in the test when 12 to 14 days old. Plants were inoculated with a spore suspension 24 hr following fungicide treatments. After inoculation the plants remained in the greenhouse set at 20° C. until disease was fully expressed. Fungicide formulation, application and disease assessment on the sprayed leaves followed the procedures as described in the Example A.

Assay [1] concerns Blumeria graminis f. sp. tritici. Nature of the assay: Wheat powdery mildew (ERYSGT) fungicidal activity. To be noted: 24 h, 1 Day Protectant, read-out: Disease Control ERYSGT 1DP. Here is the method:
Technical grades of materials were dissolved in acetone, which were then mixed with nine volumes of water containing 110 ppm Triton X-100. The fungicide solutions were applied onto wheat seedlings using an automated booth sprayer to run-off. All sprayed plants were allowed to air dry prior to further handling. Wheat plants (variety Yuma) were grown from seed in a greenhouse in 50% mineral soil/50% soil-less Metro mix until the first leaf was fully emerged, with 7-10 seedlings per pot. These plants were inoculated with an aqueous spore suspension of Septoria tritici either prior to or after fungicide treatments. After inoculation the plants were kept in 100% relative humidity (one day in a dark dew chamber followed by two to three days in a lighted dew chamber at 20° C.) to permit spores to germinate and infect the leaf. The plants were then transferred to a greenhouse set at 20° C. for disease to develop. When disease symptoms were fully expressed on the 1st leaves of untreated plants, infection levels were assessed on a scale of 0 to 100 percent disease severity. Percent disease control was calculated using the ratio of disease severity on treated plants relative to untreated plants. Evaluation of Fungicidal Activity: Wheat Powdery Mildew (Blumeria Graminis f. sp. Tritici; Synonym: Erysiphe graminis f. sp. Tritici; Bayer Code […]) Wheat plants (variety Yuma) were grown from seed in a greenhouse in 50% mineral soil/50% soil-less Metro mix until the first leaf was fully emerged, with 7-10 seedlings per pot. These plants were inoculated by dusting with infected stock plants 24 hr after fungicide treatments. After inoculation the plants were kept in a greenhouse set at 20° C. for disease to develop. Fungicide formulation, application and disease assessment on the sprayed leaves followed the procedures as described in the Example A.

The subject of assay [2] is Blumeria graminis f. sp. hordei. Nature of the assay: Barley powdery mildew (ERYSGH) fungicidal activity. The note with it: 24 h, 1 Day Protectant, read-out: Disease Control ERYSGH 1DP. Here is the method:
Technical grades of materials were dissolved in acetone, which were then mixed with nine volumes of water containing 110 ppm Triton X-100. The fungicide solutions were applied onto wheat seedlings using an automated booth sprayer to run-off. All sprayed plants were allowed to air dry prior to further handling. Wheat plants (variety Yuma) were grown from seed in a greenhouse in 50% mineral soil/50% soil-less Metro mix until the first leaf was fully emerged, with 7-10 seedlings per pot. These plants were inoculated with an aqueous spore suspension of Septoria tritici either prior to or after fungicide treatments. After inoculation the plants were kept in 100% relative humidity (one day in a dark dew chamber followed by two to three days in a lighted dew chamber at 20° C.) to permit spores to germinate and infect the leaf. The plants were then transferred to a greenhouse set at 20° C. for disease to develop. When disease symptoms were fully expressed on the 1st leaves of untreated plants, infection levels were assessed on a scale of 0 to 100 percent disease severity. Percent disease control was calculated using the ratio of disease severity on treated plants relative to untreated plants. Evaluation of Fungicidal Activity: Barley Powdery Mildew (Blumeria Graminis f. sp. Hordei; Synonym: Erysiphe Graminis f. sp. Hordei; Bayer Code […]) Barley seedlings (variety Harrington) were propagated in soil-less Metro mix, with each pot having 8 to 12 plants, and used in the test when first leaf was fully emerged. Test plants were inoculated by dusting with infected stock plants 24 hr after fungicide treatments. After inoculation the plants were kept in a greenhouse set at 20° C. for disease to develop. Fungicide formulation, application and disease assessment on the sprayed leaves followed the procedures as described in the Example A.

For `COCCCO[C@@H]1[C@@H](Cc2ccccc2)COC[C@H](NC(=O)c2nccc(OC)c2OCOC(C)=O)C(=O)O[C@H]1C` [Compound 16], the pest or weed control at 100 ppm (in the assay with Cercospora beticola; in the assay on Erysiphe cichoracearum; in assay [1]; in assay [2]) was 80 to 100% each time.

Take `COc1ccnc(C(=O)N[C@H]2COC[C@H](Cc3ccccc3)[C@@H](OCC(C)C)[C@H](C)OC2=O)c1OC(=O)OC(C)C` [Compound 10, 2-(((3S,7S,8R,9S)-7-benzyl-8-isobutoxy-9-methyl-2-oxo-1,5-dioxonan-3-yl)carbamoyl)-4-methoxypyridin-3-yl isopropyl carbonate]: the pest or weed control at 100 ppm in the assay with Cercospora beticola fell in the range of 80 to 100%; in the assay on Erysiphe cichoracearum it was 80 to 100%; in assay [1], 0 to 80%; in assay [2], 80 to 100%.

On to `COC(=O)/C=C/O[C@@H]1[C@@H](Cc2ccccc2)COC[C@H](NC(=O)c2nccc(OC)c2OCOC(C)=O)C(=O)O[C@H]1C` [Compound 36], for which the pest or weed control at 100 ppm with Cercospora beticola is 0 to 80%; in the assay on Erysiphe cichoracearum it was 0 to 80%; in assay [1], 0 to 80%; in assay [2] it was 80 to 100%.

In the case of `COc1ccnc(C(=O)N[C@H]2COC[C@H](Cc3ccccc3)[C@@H](OCCCc3ccccc3)[C@H](C)OC2=O)c1OCOC(C)=O` [Compound 34], the pest or weed control at 100 ppm lay within 80 to 100% in the assay with Cercospora beticola, 0 to 80% in the assay with Erysiphe cichoracearum, 0 to 80% in assay [1] and 80 to 100% in assay [2].
